The source made the active and inactive calls.
What was measured:
[1] = tested on: Vero; assay: Vero cell cytotoxicity, cytotoxicity control for flavivirus capping enzyme inhibitors (AID 588742); type: functional; details: Chlorocebus sabaeus
[2] = biological target: T1, Histone-lysine N-methyltransferase NSD2 (Homo sapiens, UniProt O96028); type: biochemical
T1 sequence (O96028 whole entry): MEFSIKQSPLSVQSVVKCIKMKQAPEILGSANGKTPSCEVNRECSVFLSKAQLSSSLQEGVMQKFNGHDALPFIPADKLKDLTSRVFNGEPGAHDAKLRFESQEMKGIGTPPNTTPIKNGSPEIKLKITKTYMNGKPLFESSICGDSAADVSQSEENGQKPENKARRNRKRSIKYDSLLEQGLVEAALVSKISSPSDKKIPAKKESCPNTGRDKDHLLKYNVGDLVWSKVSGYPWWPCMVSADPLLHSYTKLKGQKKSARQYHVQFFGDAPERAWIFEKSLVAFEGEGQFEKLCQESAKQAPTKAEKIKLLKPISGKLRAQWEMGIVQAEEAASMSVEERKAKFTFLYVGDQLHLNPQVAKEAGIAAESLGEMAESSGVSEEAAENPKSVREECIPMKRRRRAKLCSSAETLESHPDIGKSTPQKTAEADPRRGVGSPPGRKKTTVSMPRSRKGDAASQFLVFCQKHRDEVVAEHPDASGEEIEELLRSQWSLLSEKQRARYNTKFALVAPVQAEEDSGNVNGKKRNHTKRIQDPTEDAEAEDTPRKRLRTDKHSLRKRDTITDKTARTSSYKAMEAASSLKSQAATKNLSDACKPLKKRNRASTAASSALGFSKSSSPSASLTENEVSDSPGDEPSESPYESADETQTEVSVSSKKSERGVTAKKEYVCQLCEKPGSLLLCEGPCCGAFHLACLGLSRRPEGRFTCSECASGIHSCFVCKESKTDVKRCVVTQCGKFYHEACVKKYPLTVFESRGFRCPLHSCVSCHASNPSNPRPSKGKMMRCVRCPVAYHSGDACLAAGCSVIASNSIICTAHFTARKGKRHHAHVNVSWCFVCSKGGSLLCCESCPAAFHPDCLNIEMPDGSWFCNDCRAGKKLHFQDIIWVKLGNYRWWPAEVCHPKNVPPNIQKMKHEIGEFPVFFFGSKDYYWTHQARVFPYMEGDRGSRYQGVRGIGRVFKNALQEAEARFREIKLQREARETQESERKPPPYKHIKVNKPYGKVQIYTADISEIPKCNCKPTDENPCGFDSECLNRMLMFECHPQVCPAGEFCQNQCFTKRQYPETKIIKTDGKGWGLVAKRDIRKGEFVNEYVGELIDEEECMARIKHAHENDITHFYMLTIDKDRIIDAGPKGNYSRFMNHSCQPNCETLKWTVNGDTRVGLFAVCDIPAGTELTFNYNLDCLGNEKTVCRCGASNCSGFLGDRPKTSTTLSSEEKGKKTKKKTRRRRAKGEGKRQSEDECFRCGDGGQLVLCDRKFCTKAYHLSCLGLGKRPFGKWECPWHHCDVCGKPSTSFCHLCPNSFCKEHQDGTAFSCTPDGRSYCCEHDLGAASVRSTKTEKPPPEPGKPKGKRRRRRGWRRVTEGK

[3] = biological target: DNA dC->dU-editing enzyme APOBEC-3A (Homo sapiens, UniProt P31941); assay: Dose Response confirmation of small molecule APOBEC3A DNA Deaminase Inhibitors via a fluorescence-based single-stranded DNA deaminase assay. [Related pubchem assays (depositor defined):AID493011, AID493024]; type: functional
[4] = biological target: DNA dC->dU-editing enzyme APOBEC-3G (Homo sapiens, UniProt Q9HC16); type: functional;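 note: Dose-response counterscreen measuring inhibition of APOBEC3G DNA deaminase activity, run while confirming APOBEC3A inhibitors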
[5] = biological target: Genome polyprotein (dengue virus type 2, UniProt P29990); assay: Dengue-2 NS5 methyltransferase inhibitors, primary screen, biochemical, confirmation dose response (AID 588689); type: functional
Genome polyprotein, sequence (P29990 2492-3391 limits assumed): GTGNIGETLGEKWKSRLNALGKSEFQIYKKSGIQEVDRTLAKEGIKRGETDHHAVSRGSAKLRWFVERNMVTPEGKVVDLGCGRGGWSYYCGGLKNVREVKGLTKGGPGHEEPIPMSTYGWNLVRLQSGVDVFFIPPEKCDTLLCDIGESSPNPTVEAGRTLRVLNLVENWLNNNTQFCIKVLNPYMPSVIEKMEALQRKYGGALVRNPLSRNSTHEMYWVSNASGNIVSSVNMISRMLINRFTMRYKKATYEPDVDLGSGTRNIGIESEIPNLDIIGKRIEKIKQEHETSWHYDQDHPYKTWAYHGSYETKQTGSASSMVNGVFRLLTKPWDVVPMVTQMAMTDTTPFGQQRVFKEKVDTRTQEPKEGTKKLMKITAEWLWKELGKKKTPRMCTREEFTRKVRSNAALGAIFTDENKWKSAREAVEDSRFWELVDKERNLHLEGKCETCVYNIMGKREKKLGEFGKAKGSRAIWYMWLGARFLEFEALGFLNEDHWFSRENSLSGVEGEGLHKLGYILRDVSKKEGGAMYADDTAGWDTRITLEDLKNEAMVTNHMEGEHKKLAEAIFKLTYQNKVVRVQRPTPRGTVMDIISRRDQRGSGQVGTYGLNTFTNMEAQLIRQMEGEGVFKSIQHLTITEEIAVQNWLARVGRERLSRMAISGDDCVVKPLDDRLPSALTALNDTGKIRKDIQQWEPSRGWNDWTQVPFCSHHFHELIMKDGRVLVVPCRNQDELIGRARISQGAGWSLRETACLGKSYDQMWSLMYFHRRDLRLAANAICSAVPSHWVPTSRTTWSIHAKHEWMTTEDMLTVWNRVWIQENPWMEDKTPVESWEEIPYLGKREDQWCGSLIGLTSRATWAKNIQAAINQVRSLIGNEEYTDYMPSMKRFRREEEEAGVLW

[6] = tested on: T-cell; assay: inhibitors of CD8+ T cell–vesicle binding, dose response, mouse 2C CD8+ T cells, flow cytometry (AID 485284); type: functional
[7] = biological target: Integrin alpha-L (Mus musculus, UniProt P24063); assay: modulators of CD8 T cell-vesicle binding, dose response, powder samples, mouse 2C CD8+ cells (AID 504565); type: functional
[8] = biological target: T2, Coagulation factor XII (Homo sapiens, UniProt P00748); assay: Factor XIIa Dose Response Confirmation from Single Well HTS. [Related pubchem assays (depositor defined):AID701]; type: functional
T2 sequence (P00748 whole entry): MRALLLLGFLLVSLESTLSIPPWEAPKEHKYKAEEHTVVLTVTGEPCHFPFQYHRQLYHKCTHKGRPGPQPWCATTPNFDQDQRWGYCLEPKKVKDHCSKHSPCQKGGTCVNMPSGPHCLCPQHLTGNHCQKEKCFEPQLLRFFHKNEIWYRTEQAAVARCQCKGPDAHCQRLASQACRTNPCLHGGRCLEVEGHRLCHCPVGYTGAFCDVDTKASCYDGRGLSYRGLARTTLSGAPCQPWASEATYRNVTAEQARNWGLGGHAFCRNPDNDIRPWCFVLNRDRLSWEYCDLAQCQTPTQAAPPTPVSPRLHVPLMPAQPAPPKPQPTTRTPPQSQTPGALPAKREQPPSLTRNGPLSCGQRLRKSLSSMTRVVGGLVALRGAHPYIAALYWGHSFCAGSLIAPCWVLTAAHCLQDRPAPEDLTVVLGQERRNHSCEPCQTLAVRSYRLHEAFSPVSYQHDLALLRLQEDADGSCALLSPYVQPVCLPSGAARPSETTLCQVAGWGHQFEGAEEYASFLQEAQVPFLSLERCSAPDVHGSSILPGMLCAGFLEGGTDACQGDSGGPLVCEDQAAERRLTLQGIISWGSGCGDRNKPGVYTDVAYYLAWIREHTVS

[9] = biological target: Delta-type opioid receptor (Homo sapiens, UniProt P41143); assay: SAR Analysis of Antagonists of the DOR Receptor using an Image-Based Assay - Set 3. [Related pubchem assays (depositor defined):AID1777, AID1785]; type: functional;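 note: U2OS cells expressing DOR1 and beta-arrestin GFP stimulated with 100 nM SNC80; imaging of GFP-tagged beta-arrestin moving into spots after receptor activation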
Delta-type opioid receptor, sequence (P41143 whole entry): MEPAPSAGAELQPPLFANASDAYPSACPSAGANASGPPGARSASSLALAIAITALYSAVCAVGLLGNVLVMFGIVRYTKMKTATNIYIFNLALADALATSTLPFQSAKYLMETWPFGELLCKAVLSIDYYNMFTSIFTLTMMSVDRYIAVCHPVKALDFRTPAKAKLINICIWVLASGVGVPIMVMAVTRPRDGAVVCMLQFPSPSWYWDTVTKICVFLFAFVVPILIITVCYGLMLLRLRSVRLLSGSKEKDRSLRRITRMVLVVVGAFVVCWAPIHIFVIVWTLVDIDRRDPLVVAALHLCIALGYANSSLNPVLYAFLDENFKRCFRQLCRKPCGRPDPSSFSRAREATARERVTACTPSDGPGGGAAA

[10] = biological target: Mu-type opioid receptor (Homo sapiens, UniProt P35372); assay: SAR Analysis of Antagonists of the MOR Receptor using an Image-Based Assay - Set 3. [Related pubchem assays (depositor defined):AID1777, AID1785, AID1786, AID1966, AID2133, AID2136, AID2284, AID2285, AID2420]; type: functional
[11] = biological target: T3, Kappa-type opioid receptor (Homo sapiens, UniProt P41145); assay: SAR analysis of small molecule antagonists of the kappa opioid receptor via a luminescent beta-arrestin assay - Set 3. [Related pubchem assays (depositor defined):AID1777, AID1778, AID1785, AID1786, AID1966, AID2133, AID2136, AID2285, AID2495]; type: functional
T3 sequence (P41145 whole entry): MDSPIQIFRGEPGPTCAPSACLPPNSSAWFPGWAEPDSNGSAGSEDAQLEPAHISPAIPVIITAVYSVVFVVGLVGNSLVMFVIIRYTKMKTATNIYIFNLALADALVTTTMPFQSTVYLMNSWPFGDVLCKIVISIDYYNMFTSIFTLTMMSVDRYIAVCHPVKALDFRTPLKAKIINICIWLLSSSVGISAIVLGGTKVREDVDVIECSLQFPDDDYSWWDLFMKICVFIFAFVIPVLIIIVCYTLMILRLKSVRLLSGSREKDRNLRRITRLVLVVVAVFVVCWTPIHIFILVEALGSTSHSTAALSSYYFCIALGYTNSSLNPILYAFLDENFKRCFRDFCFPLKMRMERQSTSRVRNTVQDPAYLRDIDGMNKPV

[12] = biological target: T3, Kappa-type opioid receptor; assay: SAR analysis of Antagonists of the Kappa Opioid Receptor (KOR) using an Image-Based Assay - Set 3. [Related pubchem assays (depositor defined):AID1777, AID1785]; type: functional
[13] = biological target: Hexokinase (Trypanosoma brucei, UniProt Q38C41); assay: Confirmation assay for inhibitors of Trypanosoma brucei hexokinase 1-Analogue-first series. [Related pubchem assays (depositor defined):AID1430, AID1632, AID2516, AID2560, AID2579, AID2600, AID449725, AID492951]; type: functional
[14] = biological target: T4, Dual specificity protein phosphatase 3 (Homo sapiens, UniProt P51452); assay: SAR VHR1 Fluorescent Assay for In Vitro dose response studies. [Related pubchem assays (depositor defined):AID1654, AID1661, AID1878, AID1992, AID2004, AID2070, AID2085]; type: functional
T4 sequence (P51452 whole entry): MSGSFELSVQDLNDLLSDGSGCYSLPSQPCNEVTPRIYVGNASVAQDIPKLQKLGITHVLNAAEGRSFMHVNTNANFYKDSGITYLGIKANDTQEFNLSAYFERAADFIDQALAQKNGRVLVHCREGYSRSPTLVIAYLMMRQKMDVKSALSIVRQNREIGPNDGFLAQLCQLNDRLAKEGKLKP

[15] = biological target: T4, Dual specificity protein phosphatase 3; assay: SAR VHR1 absorbance Assay for In Vitro dose response studies. [Related pubchem assays (depositor defined):AID1654, AID1661, AID1878, AID1992, AID2004]
[16] = biological target: T5, Dual specificity protein phosphatase 6 (Rattus norvegicus, UniProt Q64346); type: functional;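 note: confirmatory in vitro dose-response testing of MKP-3 inhibition; recombinant His-tagged MKP-3 made in E. coli BL21 with OMFP substrate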
T5 sequence (Q64346 whole entry): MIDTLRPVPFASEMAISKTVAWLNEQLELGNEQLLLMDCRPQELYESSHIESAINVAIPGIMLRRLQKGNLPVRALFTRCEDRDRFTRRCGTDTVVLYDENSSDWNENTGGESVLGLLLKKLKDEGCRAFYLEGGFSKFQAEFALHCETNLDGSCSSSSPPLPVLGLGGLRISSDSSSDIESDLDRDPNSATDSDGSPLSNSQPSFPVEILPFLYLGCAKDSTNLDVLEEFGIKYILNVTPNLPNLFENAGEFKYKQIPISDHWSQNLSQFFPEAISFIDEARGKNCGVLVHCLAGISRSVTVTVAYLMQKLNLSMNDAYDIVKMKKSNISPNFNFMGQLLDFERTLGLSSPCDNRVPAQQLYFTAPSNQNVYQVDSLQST

[17] = biological target: T6, Tyrosine-protein phosphatase non-receptor type 7 (Homo sapiens, UniProt P35236); assay: redox-dependent HePTP inhibition, mechanism study, biochemical, fluorescence (AID 2068); type: functional
T6 sequence (P35236 whole entry): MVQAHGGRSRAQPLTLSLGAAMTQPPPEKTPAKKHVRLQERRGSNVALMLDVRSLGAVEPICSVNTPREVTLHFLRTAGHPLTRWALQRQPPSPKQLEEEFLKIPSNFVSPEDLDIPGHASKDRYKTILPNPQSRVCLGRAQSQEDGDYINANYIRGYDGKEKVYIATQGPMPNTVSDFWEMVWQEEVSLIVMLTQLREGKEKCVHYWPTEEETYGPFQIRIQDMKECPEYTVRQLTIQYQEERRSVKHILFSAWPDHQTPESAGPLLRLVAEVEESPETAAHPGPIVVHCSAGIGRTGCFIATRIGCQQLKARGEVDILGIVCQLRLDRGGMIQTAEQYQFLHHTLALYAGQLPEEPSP

[18] = biological target: Eukaryotic translation initiation factor 4E (Mus musculus, UniProt P63073); assay: eIF4E–eIF4G protein interaction inhibitors, dose response, biochemical, TR-FRET (AID 855); type: functional;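 note: potency for disrupting eIF4E binding to eIF4GI seen as loss of FRET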
[19] = biological target: Glucose-6-phosphate 1-dehydrogenase (Homo sapiens, UniProt P11413); assay: human G6PD enzyme inhibitors, dose response, selectivity assay for P. falciparum G6PD inhibitor project, biochemical, fluorescence (AID 504792); type: functional
[20] = biological target: T7, Mannose-6-phosphate isomerase (Homo sapiens, UniProt P34949); assay: human PMI inhibitors, high substrate, primary screen, biochemical, fluorescence intensity, high mannose 6-phosphate (AID 1220)
T7 sequence (P34949 whole entry): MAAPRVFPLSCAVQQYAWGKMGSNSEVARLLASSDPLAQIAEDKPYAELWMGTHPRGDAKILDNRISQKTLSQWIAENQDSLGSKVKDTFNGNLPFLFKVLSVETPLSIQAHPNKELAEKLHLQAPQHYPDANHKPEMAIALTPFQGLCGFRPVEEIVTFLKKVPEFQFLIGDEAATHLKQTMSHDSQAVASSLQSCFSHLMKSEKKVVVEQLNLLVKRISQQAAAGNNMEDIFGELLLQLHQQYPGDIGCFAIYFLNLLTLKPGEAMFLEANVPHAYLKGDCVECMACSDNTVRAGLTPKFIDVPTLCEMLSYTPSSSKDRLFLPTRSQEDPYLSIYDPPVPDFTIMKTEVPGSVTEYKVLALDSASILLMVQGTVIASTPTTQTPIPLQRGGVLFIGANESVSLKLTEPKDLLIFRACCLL

[21] = biological target: T8, Voltage-gated N-type calcium channel alpha-1B subunit/Amyloid beta A4 precursor protein-binding family A member 1 (Homo sapiens, UniProt Q00975+Q02410); type: protein assay
T8 sequence (Q00975 whole entry): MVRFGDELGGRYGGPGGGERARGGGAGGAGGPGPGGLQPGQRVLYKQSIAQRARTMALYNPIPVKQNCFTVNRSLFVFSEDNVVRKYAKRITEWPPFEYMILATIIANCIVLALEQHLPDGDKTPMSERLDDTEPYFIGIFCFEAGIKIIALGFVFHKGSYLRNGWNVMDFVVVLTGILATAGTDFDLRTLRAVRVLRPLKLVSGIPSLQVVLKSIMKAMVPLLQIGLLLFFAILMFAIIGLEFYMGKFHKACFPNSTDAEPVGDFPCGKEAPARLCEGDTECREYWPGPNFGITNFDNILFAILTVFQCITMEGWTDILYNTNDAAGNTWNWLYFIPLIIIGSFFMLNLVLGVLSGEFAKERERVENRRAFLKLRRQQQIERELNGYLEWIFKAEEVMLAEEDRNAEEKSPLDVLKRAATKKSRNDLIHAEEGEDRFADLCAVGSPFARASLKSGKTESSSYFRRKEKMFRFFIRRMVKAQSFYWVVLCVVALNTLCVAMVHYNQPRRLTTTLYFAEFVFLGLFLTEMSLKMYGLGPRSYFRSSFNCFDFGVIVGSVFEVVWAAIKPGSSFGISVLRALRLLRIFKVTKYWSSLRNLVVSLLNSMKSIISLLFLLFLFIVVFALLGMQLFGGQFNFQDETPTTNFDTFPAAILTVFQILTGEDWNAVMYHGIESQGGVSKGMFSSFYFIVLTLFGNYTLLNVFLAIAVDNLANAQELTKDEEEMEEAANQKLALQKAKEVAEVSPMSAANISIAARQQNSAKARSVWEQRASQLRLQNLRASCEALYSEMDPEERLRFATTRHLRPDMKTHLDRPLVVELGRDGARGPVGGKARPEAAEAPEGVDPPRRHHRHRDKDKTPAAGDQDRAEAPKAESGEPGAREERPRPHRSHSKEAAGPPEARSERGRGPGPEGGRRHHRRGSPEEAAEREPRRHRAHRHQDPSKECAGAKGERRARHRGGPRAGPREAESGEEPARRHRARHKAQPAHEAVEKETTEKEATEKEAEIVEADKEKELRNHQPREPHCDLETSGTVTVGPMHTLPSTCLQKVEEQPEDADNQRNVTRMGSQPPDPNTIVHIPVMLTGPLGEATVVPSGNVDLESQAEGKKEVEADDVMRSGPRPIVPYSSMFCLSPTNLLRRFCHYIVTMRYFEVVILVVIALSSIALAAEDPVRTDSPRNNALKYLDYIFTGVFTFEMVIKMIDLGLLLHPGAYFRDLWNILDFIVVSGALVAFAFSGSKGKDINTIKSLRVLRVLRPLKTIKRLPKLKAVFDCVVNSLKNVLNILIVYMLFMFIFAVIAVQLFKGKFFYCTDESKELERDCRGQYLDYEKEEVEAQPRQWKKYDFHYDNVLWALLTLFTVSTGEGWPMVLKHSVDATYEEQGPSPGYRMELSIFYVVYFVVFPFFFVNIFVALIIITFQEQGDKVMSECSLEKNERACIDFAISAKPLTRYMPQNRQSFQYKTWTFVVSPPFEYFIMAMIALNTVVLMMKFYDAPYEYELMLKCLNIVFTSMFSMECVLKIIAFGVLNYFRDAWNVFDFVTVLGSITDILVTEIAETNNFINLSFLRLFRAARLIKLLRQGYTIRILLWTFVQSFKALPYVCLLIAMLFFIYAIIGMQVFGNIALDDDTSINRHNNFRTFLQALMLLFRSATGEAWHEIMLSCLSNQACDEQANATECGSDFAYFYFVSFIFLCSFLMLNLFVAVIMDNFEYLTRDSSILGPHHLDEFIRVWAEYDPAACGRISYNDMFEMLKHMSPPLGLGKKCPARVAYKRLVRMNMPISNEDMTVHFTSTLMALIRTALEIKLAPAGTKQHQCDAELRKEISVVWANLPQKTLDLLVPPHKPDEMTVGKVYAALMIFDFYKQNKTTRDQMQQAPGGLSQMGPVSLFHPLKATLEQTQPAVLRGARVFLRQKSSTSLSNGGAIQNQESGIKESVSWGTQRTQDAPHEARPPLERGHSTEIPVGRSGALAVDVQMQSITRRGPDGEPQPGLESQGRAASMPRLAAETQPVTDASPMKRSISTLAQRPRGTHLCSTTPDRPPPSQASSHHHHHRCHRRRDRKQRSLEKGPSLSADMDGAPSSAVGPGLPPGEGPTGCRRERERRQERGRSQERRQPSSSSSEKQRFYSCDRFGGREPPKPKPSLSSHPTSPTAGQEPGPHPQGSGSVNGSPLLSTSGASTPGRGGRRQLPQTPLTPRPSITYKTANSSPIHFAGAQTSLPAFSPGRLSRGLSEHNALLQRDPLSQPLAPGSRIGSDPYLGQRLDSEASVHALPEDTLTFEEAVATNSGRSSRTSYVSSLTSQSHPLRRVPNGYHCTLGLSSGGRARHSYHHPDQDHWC
T8 sequence (Q02410 whole entry): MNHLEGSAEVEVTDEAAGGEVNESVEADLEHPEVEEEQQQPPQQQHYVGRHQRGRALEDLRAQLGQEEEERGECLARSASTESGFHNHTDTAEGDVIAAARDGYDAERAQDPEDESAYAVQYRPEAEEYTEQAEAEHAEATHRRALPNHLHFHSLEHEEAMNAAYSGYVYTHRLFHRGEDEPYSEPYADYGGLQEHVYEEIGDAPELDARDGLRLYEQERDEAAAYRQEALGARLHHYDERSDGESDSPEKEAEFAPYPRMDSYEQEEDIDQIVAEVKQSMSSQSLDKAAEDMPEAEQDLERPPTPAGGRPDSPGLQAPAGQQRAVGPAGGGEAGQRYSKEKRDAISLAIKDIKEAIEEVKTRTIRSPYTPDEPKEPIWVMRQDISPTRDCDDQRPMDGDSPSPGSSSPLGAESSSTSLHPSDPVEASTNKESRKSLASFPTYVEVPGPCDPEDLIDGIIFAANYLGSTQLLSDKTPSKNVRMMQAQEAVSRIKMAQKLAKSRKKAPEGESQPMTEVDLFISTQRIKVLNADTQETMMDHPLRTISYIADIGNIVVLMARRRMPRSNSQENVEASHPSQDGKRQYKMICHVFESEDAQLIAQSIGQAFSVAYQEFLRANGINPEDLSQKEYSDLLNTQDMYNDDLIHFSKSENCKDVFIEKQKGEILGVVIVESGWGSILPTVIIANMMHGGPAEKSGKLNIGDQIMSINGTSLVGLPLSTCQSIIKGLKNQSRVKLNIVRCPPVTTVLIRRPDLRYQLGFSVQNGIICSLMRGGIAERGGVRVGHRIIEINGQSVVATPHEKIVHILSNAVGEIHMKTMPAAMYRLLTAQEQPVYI

[22] = biological target: Bifunctional protein GlmU (Mycobacterium tuberculosis, UniProt P9WMN3); assay: Inhibitors of Mycobacterial Glucosamine-1-phosphate acetyl transferase (GlmU). Secondary screen.; parameters: species or system Mycobacterium tuberculosis H37Rv
[23] = biological target: Induced myeloid leukemia cell differentiation protein Mcl-1 (Homo sapiens, UniProt Q07820); type: functional
[24] = biological target: T8, Voltage-gated N-type calcium channel alpha-1B subunit/Amyloid beta A4 precursor protein-binding family A member 1; type: protein assay; remark: listed apart in the source

Which results are given for `CC(C)C1Nc2ccc(C(=O)O)cc2C2C=CCC21` (configuration not stated)?
CC50 [1]: > 40 µM (active); AC50 [2]: > 20 µM (inactive); IC50 [3]: 21.8 µM (active); IC50 [4]: 16.2 µM (active); IC50 [5]: 38.7 µM (active)

With `Cc1cc(Cl)c(OCCCSc2nc(C)cc(O)n2)c(Br)c1` as the compound, how does the EC50 [6] read?
Its EC50 is 56.6 µM (inactive).

And the EC50 [7]?
The EC50 was 17.1 µM (active).

How did the IC50 [8] turn out when `Cc1cc(NC(=O)COC(=O)c2c(C)nn(Cc3ccccc3)c2C)no1` was run?
The IC50 was > 50 µM (inactive).

Which IC50 [9] does the source give for `COc1ccc(S(=O)(=O)NCc2ccc(C(=O)NCCN(Cc3ccccc3)Cc3ccccc3)cc2)cc1` here?
The IC50 was > 32 µM (inactive).

And the IC50 [10]?
The IC50 was > 32 µM (inactive).

What about the IC50 [11] of the same compound?
The IC50 was > 20 µM (inactive).

And the IC50 [12]?
Its IC50 is 13.1 µM (inactive).

Which IC50 [13] does the source give for `O=C(Nc1cc(Cl)ccc1C(=O)O)c1ccc2c(c1)OCO2` here?
Its IC50 is 9.43 µM (active).

For `O=C(NCc1ccccc1)c1cn(CCOc2ccccc2)c2ccccc12`, which IC50 [14] is on record?
Its IC50 is > 100 µM (inactive).

And the IC50 [15]?
The IC50 was > 100 µM (inactive).

And the IC50 [16]?
Its IC50 is > 100 µM (inactive).

What about the IC50 [17] of the same compound?
Its IC50 is 44.1 µM (active).

`Oc1ccc(/C=N/N=C(c2ccccc2)c2ccccc2)c(O)c1O` was tested. Which CC50 [1] did it give?
Its CC50 is 31.3 µM (active).

What about the IC50 [18] of the same compound?
Its IC50 is > 64 µM (inactive).

What about the IC50 [19] of the same compound?
Its IC50 is 79.2 µM (inactive).

And the AC50 [2]?
Its AC50 is 0.635 µM (active).

And the IC50 [20]?
Its IC50 is 12.1 µM (active).

And the IC50 [5]?
The IC50 was 23.4 µM (active).

What about the IC50 [21] of the same compound?
The IC50 was 10.8 µM (active).

What about the IC50 [22] of the same compound?
The IC50 was 19.3 µM (active).

What about the IC50 [23] of the same compound?
The IC50 was 4.44 µM (active).

And the IC50 [24]?
The IC50 was 3.27 µM (active).
